{"source": "paper PMC11013252", "about": "“Exploration of the Antibacterial and Anti-Inflammatory Activity of a Novel Antimicrobial Peptide Brevinin-1BW” (Molecules, 2024)", "key": {"sheep erythrocytes": {"system": "sheep erythrocytes", "format": "cell-based", "details": "red cells of sheep, 2 h", "protocol": "A hemolytic assay of Brevinin-1BW was conducted using sheep erythrocytes (Solarbio, Beijing, China) at a concentration of 2% (v/v) of erythrocyte suspension. […] After centrifugation at 1000 rpm for 15 min, the absorbance of the supernatant was analyzed using a multifunctional enzyme standardizer with the wavelength set at 570 nm. The experiment was repeated three times. […] Haemolysis%=(A0−A2)/(A0−A1)×100"}, "[1]": {"system": "S. haemolyticus (CI 1607BLD590)", "experiment": "microbe, parasite or virus in culture", "format": "cell-based, Staphylococcus haemolyticus", "details": "CI 1607BLD590, 18 h", "protocol": "(§1) The minimum inhibitory concentration (MIC) of the Brevinin-1BW was measured in 96-well microtiter plates according to the Clinical and Laboratory Standards Institute (CLSI). The activated strains were treated with Mueller Hinton Agar (MHA) solid medium. Single colonies were picked and expanded to the logarithmic growth phase, and the solution was diluted to 2 × 10^6 CFU/mL using the McFarland turbidity standard. The MIC was determined with the two-fold dilution method. Briefly, 50 μL of Mueller Hinton (MH) medium was added to a 96-well plate in advance. Then, 50 μL of AMP solution was added to the first well, and 50 μL was pipetted into the next well after mixing using a row gun, while 50 μL was discarded from the last well. Final concentrations of Brevinin-1BW were 100, 50, 25, 12.5, 6.25, and 3.125 μg/mL. A 50 μL volume of the diluted bacterial solution was added, and the final concentration of the bacterial solution was 1 × 10^6 CFU/mL. This was then placed into a 37 °C incubator for 18 h until the next day to observe the degree of turbidity of the 96-well plate and measure the absorbance of the wells at 600 nm with a multifunctional microplate reader (SpectraMax iD5, Molecular Devices, Sunnyvale, CA, USA). The absence of turbidity and the measured concentration of absorbance being less than the opposing group was taken as the MIC. The positive control used ampicillin at the same final concentration as Brevinin-1BW, the negative control used 50 μL of MH medium mixed with 50 μL of 2 × 10^6 CFU/mL bacterial solution, and the blank contained only 100 μL of MH medium. Three replicate wells were set up for each experiment, and each experiment was repeated three times. The MIC and all concentrations above the MIC of bacterial solution coated on MHA solid medium were placed into 37 °C incubator incubation for 18 h. The lowest concentration resulting in no colony growth was taken as the minimum bactericidal concentration (MBC)."}, "HaCaT": {"system": "HaCaT", "format": "cell-based, human", "details": "24 h", "protocol": "(§2) Medium was prepared to contain 10% FBS (TransGen Biotech, China) and 1% penicillin-streptomycin (Biosharp, Guangzhou, China). A549, U-2OS, HePG2, HaCaT, HUVEC, and 293T cells were cultured in DMEM medium (Gibco, New York, NY, USA). A375, HCT116, Hela, and RAW264.7 cells were cultured in RPMI 1640 medium (Gibco, New York, NY, USA). The cytotoxicity of Brevinin-1BW was determined using the Cell Counting Kit-8 as follows: detached the cells from cell culture flasks with 0.25% trypsin, counted with a hemocytometer plate and then prepared into a cell suspension containing 5 × 10^3 cells/mL. Then, 90 μL of the cell suspension was inoculated into a 96-well plate and incubated at 37 °C in a 5% CO2-humidified atmosphere for 24 h. A 10 μL volume of the peptide was subsequently added to each well and co-incubated with the cells for 24 h. Then, 10 μL of CCK8 (Abbkine, Wuhan, China) was added to each well and incubated for a further 2 h. The absorbance of each well at 450 nm was measured using a multifunctional enzyme marker. […] Three replicate wells were set up for each experiment, and each experiment was repeated three times. The formula for calculating the cell viability is shown below."}, "293T": {"system": "293T", "format": "cell-based, human", "details": "24 h", "protocol": "as §2"}, "HUVEC": {"system": "HUVEC", "format": "cell-based, human", "details": "24 h", "protocol": "as §2"}, "HePG2": {"system": "HePG2", "format": "cell-based, human", "details": "24 h", "protocol": "as §2"}, "U-2OS": {"system": "U-2OS", "format": "cell-based, human", "details": "24 h", "protocol": "as §2"}, "Hela": {"system": "Hela", "format": "cell-based, human", "details": "24 h", "protocol": "as §2"}, "IL-1β": {"system": "IL-1β", "experiment": "Cytokine release in LPS-treated RAW264.7 cells, ELISA", "format": "cell-based, mouse", "details": "4 μg/mL peptide, 1 μg/mL LPS, RAW264.7, 24 h, ELISA of supernatant", "protocol": "(§3) RAW 264.7 mouse macrophages were cultured in DMEM medium (Gibco, New York, NY, USA). containing 10% FBS (TransGen Biotech, Beijing, China) and 1% penicillin-streptomycin (Biosharp, Guangzhou, China) and were seeded into 6-well plates at a cell density of 10^5 cells/mL. After cell adhesion, 1 μg/mL LPS (Solarbio, Beijing, China) and different concentrations of Brevinin-1BW (0, 1, 2, 3, and 4 μg/mL) were incubated for 24 h. Culture supernatants were collected, and the contents of TNFα, IL-6, and IL-1β were determined with enzyme-linked immunosorbent assay (BOSTER, Wuhan, China). All cells were washed twice with precooled PBS, total cellular RNA was extracted using the RNAsimple Total RNA Extraction kit (TIANGEN, Beijing, China), and total RNA concentration and purity were determined using a Thermo Fisher NanoDropOne nucleic acid protein spectrophotometer. HiScript II 1st Strand cDNA Synthesis Kit (Vazyme, Nanjing, China) synthesized cDNA, and we performed real-time PCR using Hieff® qPCR SYBR Green Master Mix (No Rox) (YEASEN, Shanghai, China). The primer sequences for Beta-actin (β-Actin), interleukins (IL-6, IL-1β), tumor necrosis factor (TNF-α), and nitric oxide synthase (iNOS) are shown in Table 6. Cells incubated without peptide and/or LPS were used as negative control. All experiments were repeated three times."}, "TNF-α": {"system": "TNF-α", "experiment": "Cytokine release in LPS-treated RAW264.7 cells, ELISA", "format": "cell-based, mouse", "protocol": "as §3"}, "IL-6": {"system": "IL-6", "experiment": "Cytokine release in LPS-treated RAW264.7 cells, ELISA", "format": "cell-based, mouse", "protocol": "as §3"}, "[2]": {"system": "P. aeruginosa (ATCC27853)", "experiment": "microbe, parasite or virus in culture", "format": "cell-based, Pseudomonas aeruginosa", "details": "ATCC27853, 18 h", "protocol": "as §1"}}, "note": "Positions of bridges follow the written chain, without caps; N, C: chain ends. Residues, ends and D or L forms follow the SMILES beside them.", "data": [{"smiles": "CC[C@H](C)[C@@H]1NC(=O)[C@H](CCCCN)NC(=O)[C@@H](NC(=O)[C@H](Cc2ccccc2)NC(=O)[C@@H](NC(=O)[C@@H](NC(=O)[C@@H]2CCCN2C(=O)[C@H](CC(C)C)NC(=O)[C@H](Cc2ccccc2)NC(=O)[C@H](CO)NC(=O)[C@H](C)NC(=O)[C@H](C)NC(=O)[C@H](CC(C)C)NC(=O)CNC(=O)[C@H](C)NC(=O)[C@H](CC(C)C)NC(=O)[C@H](CC(C)C)NC(=O)[C@@H]2CCCN2C(=O)[C@H](CC(C)C)NC(=O)[C@@H](N)Cc2ccccc2)[C@@H](C)O)[C@@H](C)CC)CSSC[C@@H](C(=O)O)NC(=O)[C@H](CCCCN)NC(=O)[C@H](CCCNC(=N)N)NC(=O)[C@H](CO)NC1=O", "note": "[Brevinin-1BW] (H-FLPLLAGLAASFLPTIFCKISRKC-OH; disulfide 18-24)", "values": [{"measurement": "HC50 (50% hemolytic concentration)", "setting": "sheep erythrocytes", "value": 35.8, "unit": "µg/mL"}, {"measurement": "MBC", "setting": "[1]", "value": 25, "unit": "µg/mL"}, {"measurement": "MIC", "setting": "[1]", "value": 12.5, "unit": "µg/mL"}, {"measurement": "CC50", "setting": "HaCaT", "value": "36.84 ± 1.44", "unit": "µg/mL"}, {"measurement": "CC50", "setting": "293T", "value": "28.34 ± 1.08", "unit": "µg/mL"}, {"measurement": "CC50", "setting": "HUVEC", "value": "43.62 ± 0.77", "unit": "µg/mL"}, {"measurement": "CC50", "setting": "HePG2", "value": "25.42 ± 0.49", "unit": "µg/mL"}, {"measurement": "CC50", "setting": "U-2OS", "value": "39.20 ± 0.40", "unit": "µg/mL"}, {"measurement": "CC50", "setting": "Hela", "value": "37.62 ± 0.91", "unit": "µg/mL"}, {"measurement": "decrease of IL-1β release", "setting": "IL-1β", "value": 91.46, "unit": "%"}, {"measurement": "decrease of TNF-α release", "setting": "TNF-α", "value": 87.31, "unit": "%"}, {"measurement": "decrease of IL-6 release", "setting": "IL-6", "value": 77.82, "unit": "%"}, {"measurement": "MBC", "setting": "[2]", "value": ">100", "unit": "µg/mL"}, {"measurement": "MIC", "setting": "[2]", "value": 100, "unit": "µg/mL"}]}]}
